ChEMBL document CHEMBL4390652, “Design, biological evaluation and X-ray crystallography of nanomolar multifunctional ligands targeting simultaneously acetylcholinesterase and glycogen synthase kinase-3” (Eur J Med Chem, 2019)

Columns and labels:
[1] = biological target: RAC-alpha serine/threonine-protein kinase (Homo sapiens) (UniProt P31749); test: Binding affinity to wild-type human partial length AKT1 expressed in bacterial expression system assessed as residual binding level at 10 uM by Kinomescan method relative to control
Sequence of RAC-alpha serine/threonine-protein kinase (Homo sapiens) (P31749 whole entry): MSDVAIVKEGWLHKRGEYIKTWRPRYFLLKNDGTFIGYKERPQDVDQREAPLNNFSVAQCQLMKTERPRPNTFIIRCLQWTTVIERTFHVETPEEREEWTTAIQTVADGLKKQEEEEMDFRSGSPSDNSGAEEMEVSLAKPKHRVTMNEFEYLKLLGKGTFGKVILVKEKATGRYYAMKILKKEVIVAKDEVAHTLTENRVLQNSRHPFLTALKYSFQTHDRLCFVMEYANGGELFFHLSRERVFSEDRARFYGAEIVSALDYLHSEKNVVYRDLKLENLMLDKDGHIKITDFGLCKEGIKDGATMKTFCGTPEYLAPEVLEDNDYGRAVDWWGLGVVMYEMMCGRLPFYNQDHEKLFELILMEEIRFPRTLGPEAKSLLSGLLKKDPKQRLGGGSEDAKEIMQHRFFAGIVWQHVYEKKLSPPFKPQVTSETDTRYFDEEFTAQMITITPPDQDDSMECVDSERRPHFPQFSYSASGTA

[2] = system: Receptor-type tyrosine-protein kinase FLT3 (Homo sapiens), P36888 [UNDEFINED MUTATION]; test: Binding affinity to human partial length FLT3 ITD/F691L double mutant expressed in bacterial expression system assessed as residual binding level at 10 uM by Kinomescan method relative to control
[3] = biological target: Calcium/calmodulin-dependent protein kinase type II subunit alpha (Homo sapiens) (UniProt Q9UQM7); test: Binding affinity to wild-type human partial length CAMK2A (M1 to K328 residues) expressed in bacterial expression system assessed as residual binding level at 10 uM by Kinomescan method relative to control
MDR1 = test: in vitro; settings: dog, MDCK-MDR1
Description: Apparent permeability across basolateral to apical side in MDCK2-MDR1 cells by HPLC analysis

[4] = biological target: Serine/threonine-protein kinase WNK3 (Homo sapiens) (UniProt Q9BYP7); test: Binding affinity to wild-type human partial length WNK3 (M1 to D434 residues) expressed in mammalian expression system assessed as residual binding level at 10 uM by Kinomescan method relative to control
Sequence of Serine/threonine-protein kinase WNK3 (Homo sapiens) (Q9BYP7 whole entry, the tested form may be a part): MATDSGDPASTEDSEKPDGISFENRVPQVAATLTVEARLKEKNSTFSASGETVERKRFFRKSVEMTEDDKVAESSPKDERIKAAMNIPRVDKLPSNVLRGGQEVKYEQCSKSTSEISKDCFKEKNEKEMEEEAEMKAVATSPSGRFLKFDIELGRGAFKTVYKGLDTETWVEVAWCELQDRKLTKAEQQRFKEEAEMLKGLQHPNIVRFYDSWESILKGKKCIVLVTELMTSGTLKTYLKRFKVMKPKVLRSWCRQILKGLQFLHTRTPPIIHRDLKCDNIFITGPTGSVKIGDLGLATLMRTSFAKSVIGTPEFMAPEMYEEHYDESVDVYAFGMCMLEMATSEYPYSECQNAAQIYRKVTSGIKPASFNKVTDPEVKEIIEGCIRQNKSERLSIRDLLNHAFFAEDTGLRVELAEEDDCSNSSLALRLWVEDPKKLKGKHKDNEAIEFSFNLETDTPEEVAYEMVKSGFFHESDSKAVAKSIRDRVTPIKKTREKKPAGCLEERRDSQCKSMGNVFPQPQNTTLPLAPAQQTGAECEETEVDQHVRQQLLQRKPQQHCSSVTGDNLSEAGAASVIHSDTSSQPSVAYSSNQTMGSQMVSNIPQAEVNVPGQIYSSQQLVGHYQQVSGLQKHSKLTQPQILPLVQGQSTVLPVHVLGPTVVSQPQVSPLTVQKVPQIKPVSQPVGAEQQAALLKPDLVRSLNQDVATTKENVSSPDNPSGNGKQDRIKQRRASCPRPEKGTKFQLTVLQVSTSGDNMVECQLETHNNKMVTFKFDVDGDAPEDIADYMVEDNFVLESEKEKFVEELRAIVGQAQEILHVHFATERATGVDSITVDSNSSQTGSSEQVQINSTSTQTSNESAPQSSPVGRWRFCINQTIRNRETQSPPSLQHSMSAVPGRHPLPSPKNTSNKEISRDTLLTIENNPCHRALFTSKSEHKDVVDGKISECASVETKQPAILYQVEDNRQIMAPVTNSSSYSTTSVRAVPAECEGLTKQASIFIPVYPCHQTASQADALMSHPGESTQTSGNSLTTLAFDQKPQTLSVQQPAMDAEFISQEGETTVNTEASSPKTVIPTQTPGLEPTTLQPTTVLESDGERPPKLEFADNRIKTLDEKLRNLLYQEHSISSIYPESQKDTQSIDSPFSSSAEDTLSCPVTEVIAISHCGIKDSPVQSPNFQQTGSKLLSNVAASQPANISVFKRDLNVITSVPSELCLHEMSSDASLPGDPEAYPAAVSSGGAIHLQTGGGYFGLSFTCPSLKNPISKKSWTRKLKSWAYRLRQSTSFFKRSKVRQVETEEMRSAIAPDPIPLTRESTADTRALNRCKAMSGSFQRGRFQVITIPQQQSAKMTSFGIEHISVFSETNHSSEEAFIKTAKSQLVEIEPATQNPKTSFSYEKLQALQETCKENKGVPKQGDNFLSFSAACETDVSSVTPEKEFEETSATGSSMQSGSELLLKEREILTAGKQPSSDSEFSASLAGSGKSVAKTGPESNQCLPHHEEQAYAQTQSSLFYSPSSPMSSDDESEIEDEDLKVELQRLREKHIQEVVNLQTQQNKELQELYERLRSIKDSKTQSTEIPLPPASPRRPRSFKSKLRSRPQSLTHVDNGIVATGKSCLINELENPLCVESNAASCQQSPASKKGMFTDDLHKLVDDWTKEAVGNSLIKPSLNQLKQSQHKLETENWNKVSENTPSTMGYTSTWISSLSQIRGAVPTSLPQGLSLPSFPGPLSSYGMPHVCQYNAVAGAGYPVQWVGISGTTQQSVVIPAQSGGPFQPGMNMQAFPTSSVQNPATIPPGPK

[5] = system: Mast/stem cell growth factor receptor Kit (Homo sapiens), P10721 [V559D]; test: Binding affinity to human partial length KIT V559D mutant (Y545 to D952 residues) expressed in bacterial expression system assessed as residual binding level at 10 uM by Kinomescan method relative to control
[6] = biological target: Cyclin-dependent kinase 4 (Homo sapiens) (UniProt P11802); test: Binding affinity to wild-type human full length CDK4 (M1 to E303 residues) expressed in mammalian expression system assessed as residual binding level at 10 uM by Kinomescan method relative to control
[7] = biological target: Ribosomal protein S6 kinase alpha-4 (Homo sapiens) (UniProt O75676); test: Binding affinity to wild-type human partial length N-terminal RPS6KA4 kinase domain 1 expressed in bacterial expression system assessed as residual binding level at 10 uM by Kinomescan method relative to control
Sequence of Ribosomal protein S6 kinase alpha-4 (Homo sapiens) (O75676 whole entry, looked up, the tested form may be a part): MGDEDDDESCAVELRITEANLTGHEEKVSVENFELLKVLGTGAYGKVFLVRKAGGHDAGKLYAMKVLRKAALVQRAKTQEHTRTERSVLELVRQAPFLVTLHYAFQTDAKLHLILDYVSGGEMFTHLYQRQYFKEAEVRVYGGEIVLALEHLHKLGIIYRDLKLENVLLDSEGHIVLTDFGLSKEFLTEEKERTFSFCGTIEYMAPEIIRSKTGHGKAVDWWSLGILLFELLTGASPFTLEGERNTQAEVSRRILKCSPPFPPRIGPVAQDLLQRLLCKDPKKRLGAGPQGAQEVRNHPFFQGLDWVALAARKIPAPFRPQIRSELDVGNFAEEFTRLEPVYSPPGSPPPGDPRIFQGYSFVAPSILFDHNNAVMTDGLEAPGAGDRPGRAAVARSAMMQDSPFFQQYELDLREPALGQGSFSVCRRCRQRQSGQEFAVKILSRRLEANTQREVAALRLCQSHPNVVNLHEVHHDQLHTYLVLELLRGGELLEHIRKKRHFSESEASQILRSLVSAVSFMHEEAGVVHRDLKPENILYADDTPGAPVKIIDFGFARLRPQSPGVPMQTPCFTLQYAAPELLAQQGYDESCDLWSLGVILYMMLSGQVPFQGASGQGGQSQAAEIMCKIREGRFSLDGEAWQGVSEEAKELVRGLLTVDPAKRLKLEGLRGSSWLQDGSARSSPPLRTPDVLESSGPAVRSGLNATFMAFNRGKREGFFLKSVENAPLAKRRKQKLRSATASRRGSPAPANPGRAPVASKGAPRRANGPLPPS

[8] = biological target: Ephrin type-B receptor 3 (Homo sapiens) (UniProt P54753); test: Binding affinity to wild-type human partial length EPHB3 (Q599 to T928 residues) expressed in bacterial expression system assessed as residual binding level at 10 uM by Kinomescan method relative to control
Sequence of Ephrin type-B receptor 3 (Homo sapiens) (P54753 whole entry, the tested form may be a part): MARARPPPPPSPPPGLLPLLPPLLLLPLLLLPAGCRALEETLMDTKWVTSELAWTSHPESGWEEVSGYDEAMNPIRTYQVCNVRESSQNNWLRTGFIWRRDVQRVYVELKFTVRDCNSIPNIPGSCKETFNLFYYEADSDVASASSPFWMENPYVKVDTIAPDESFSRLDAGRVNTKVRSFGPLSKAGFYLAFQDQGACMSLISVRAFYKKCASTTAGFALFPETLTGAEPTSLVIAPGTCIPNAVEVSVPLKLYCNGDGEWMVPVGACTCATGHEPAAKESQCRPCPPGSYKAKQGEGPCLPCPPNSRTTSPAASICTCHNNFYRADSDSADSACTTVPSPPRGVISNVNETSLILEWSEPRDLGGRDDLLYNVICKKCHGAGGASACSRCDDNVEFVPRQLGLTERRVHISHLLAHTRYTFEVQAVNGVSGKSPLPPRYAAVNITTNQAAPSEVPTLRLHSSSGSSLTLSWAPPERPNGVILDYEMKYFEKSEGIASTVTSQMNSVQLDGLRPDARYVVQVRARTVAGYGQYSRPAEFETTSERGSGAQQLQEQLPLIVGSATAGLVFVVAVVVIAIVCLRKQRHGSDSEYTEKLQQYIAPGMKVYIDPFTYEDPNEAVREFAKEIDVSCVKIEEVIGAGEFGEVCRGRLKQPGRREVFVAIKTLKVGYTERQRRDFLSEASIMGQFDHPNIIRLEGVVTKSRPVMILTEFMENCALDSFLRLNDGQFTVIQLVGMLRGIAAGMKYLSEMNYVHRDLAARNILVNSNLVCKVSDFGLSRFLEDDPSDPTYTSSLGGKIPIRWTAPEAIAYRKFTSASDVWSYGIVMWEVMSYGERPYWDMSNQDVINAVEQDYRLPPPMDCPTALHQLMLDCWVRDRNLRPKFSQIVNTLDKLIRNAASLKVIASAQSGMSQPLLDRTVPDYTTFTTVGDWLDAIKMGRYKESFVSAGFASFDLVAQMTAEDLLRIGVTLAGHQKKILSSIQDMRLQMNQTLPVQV

[9] = system: eIF-2-alpha kinase GCN2 (Homo sapiens), Q9P2K8 [S808G]; test: Binding affinity to wild-type human partial length GCN2 kinase domain 2 (R585 to T1018 residues) S808G mutant expressed in bacterial expression system assessed as residual binding level at 10 uM by Kinomescan method relative to control
[10] = biological target: Serine/threonine-protein kinase 25 (Homo sapiens) (UniProt O00506); test: Binding affinity to wild-type human partial length YSK1 (V14 to H295 residues) expressed in bacterial expression system assessed as residual binding level at 10 uM by Kinomescan method relative to control
[11] = system: Phosphatidylinositol 4,5-bisphosphate 3-kinase catalytic subunit alpha isoform (Homo sapiens), P42336 [E542K]; test: Binding affinity to human partial length PIK3CA E542K mutant (R108 to N1068 residues) expressed in mammalian expression system assessed as residual binding level at 10 uM by Kinomescan method relative to control
Sequence of Phosphatidylinositol 4,5-bisphosphate 3-kinase catalytic subunit alpha isoform (Homo sapiens), P42336 [E542K] (P42336 whole entry E542K, the tested form may be a part, canonical isoform): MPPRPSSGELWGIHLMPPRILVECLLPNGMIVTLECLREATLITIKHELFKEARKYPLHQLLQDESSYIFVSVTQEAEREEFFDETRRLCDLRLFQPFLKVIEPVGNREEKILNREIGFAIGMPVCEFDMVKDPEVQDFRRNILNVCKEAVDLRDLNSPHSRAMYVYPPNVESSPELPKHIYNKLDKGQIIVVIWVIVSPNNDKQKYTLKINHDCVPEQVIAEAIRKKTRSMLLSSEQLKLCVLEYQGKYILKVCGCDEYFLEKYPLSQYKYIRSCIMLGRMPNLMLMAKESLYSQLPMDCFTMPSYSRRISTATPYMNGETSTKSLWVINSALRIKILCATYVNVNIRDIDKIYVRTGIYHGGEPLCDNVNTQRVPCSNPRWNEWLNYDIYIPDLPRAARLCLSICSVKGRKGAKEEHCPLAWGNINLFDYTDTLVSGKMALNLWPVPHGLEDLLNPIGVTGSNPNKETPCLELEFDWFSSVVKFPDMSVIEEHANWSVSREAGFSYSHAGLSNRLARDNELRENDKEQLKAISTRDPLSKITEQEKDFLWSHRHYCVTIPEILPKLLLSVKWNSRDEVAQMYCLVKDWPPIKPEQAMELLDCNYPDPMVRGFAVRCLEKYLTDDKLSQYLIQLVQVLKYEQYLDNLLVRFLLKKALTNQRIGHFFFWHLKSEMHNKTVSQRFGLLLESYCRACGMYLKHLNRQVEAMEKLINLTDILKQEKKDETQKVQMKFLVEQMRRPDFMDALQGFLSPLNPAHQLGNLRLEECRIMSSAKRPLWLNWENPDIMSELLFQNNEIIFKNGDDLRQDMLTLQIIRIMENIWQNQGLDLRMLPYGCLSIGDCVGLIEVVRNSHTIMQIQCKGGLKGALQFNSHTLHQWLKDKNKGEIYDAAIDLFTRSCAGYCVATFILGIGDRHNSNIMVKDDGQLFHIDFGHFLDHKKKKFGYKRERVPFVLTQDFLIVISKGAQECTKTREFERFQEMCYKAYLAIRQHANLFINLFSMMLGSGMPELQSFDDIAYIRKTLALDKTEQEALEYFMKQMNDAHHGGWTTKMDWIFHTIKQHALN

[12] = biological target: Activin receptor type-2A (Homo sapiens) (UniProt P27037); test: Binding affinity to wild-type human ACVR2A (V171 to T499 residues) expressed in bacterial expression system assessed as residual binding level at 10 uM by Kinomescan method relative to control
[13] = biological target: Serine/threonine-protein kinase pim-2 (Homo sapiens) (UniProt Q9P1W9); test: Binding affinity to wild-type human partial length PIM2 (M1 to E291 residues) expressed in bacterial expression system assessed as residual binding level at 10 uM by Kinomescan method relative to control
[14] = biological target: Serine/threonine-protein kinase PAK 4 (Homo sapiens) (UniProt O96013); test: Binding affinity to wild-type human partial length PAK4 (Q144 to R438 residues) expressed in bacterial expression system assessed as residual binding level at 10 uM by Kinomescan method relative to control
[15] = biological target: Ephrin type-A receptor 6 (Homo sapiens) (UniProt Q9UF33); test: Binding affinity to wild-type human partial length EPHA6 (Y700 to E1046 residues) expressed in bacterial expression system assessed as residual binding level at 10 uM by Kinomescan method relative to control
[16] = biological target: Serine/threonine-protein kinase OSR1 (Homo sapiens) (UniProt O95747); test: Binding affinity to wild-type human full length OSR1 (M1 to S527 residues) expressed in mammalian expression system assessed as residual binding level at 10 uM by Kinomescan method relative to control
[17] = system: Epidermal growth factor receptor (Homo sapiens), P00533 [L858R,T790M]; test: Binding affinity to human partial length EGFR L858R/T790M double mutant (R669 to V1011 residues) expressed in mammalian expression system assessed as residual binding level at 10 uM by Kinomescan method relative to control
[18] = biological target: Receptor-interacting serine/threonine-protein kinase 1 (Homo sapiens) (UniProt Q13546); test: Binding affinity to wild-type human partial length RIPK1 (M1 to K305 residues) expressed in bacterial expression system assessed as residual binding level at 10 uM by Kinomescan method relative to control
[19] = system: Tyrosine-protein kinase ABL1 (Homo sapiens), P00519 [F317I]; test: Binding affinity to human phosphorylated ABL1 F317I mutant (S229 to K512 residues) expressed in mammalian expression system assessed as residual binding level at 10 uM by Kinomescan method relative to control
[20] = biological target: Serine/threonine-protein kinase RIO1 (Homo sapiens) (UniProt Q9BRS2); test: Binding affinity to wild-type human full length RIOK1 (M1 to K568 residues) expressed in bacterial expression system assessed as residual binding level at 10 uM by Kinomescan method relative to control
[21] = biological target: Casein kinase I isoform gamma-3 (Homo sapiens) (UniProt Q9Y6M4); test: Binding affinity to wild-type human full length CSNK1G3 (M1 to K447 residues) expressed in bacterial expression system assessed as residual binding level at 10 uM by Kinomescan method relative to control
[22] = biological target: Mitogen-activated protein kinase 14 (Homo sapiens) (UniProt Q16539); test: Binding affinity to wild-type human full length p38-alpha (M1 to S360 residues) expressed in bacterial expression system assessed as residual binding level at 10 uM by Kinomescan method relative to control
[23] = biological target: Serine/threonine-protein kinase ULK2 (Homo sapiens) (UniProt Q8IYT8); test: Binding affinity to wild-type human partial length ULK2 (M1 to S301 residues) expressed in mammalian expression system assessed as residual binding level at 10 uM by Kinomescan method relative to control
[24] = biological target: Mitogen-activated protein kinase kinase kinase 10 (Homo sapiens) (UniProt Q02779); test: Binding affinity to wild-type human partial length MLK2 (V52 to W380 residues) expressed in bacterial expression system assessed as residual binding level at 10 uM by Kinomescan method relative to control

O=C(Nc1cc(-c2cn(CCNc3c4c(nc5ccccc35)CCCC4)nn2)ccn1)Nc1cccc2c1C1CCCCN1C2=O (racemic)
Activity [1]: 100% | Activity [2]: 0.25% | Activity [3]: 79% | Papp B→A (MDR1): 16.8 ×10⁻⁶ cm/s | Activity [4]: 100% | Activity [5]: 0.05% | Activity [6]: 3% | Activity [7]: 22% | Activity [8]: 100% | Activity [9]: 75% | Activity [10]: 54% | Activity [11]: 72% | Activity [12]: 100% | Activity [13]: 16% | Activity [14]: 14% | Activity [15]: 97% | Activity [16]: 100% | Activity [17]: 87% | Activity [18]: 3.3% | Activity [19]: 47% | Activity [20]: 5.2% | Activity [21]: 80% | Activity [22]: 91% | Activity [23]: 16% | Activity [24]: 58%
